From patent publication US7691836B2, “Progesterone receptor modulators” (N.V. Organon, priority 2004, dated 2010) come the findings set out here.

Assay [1] concerns the target T1, progesterone receptor-B (Homo sapiens, UniProt P06401).
T1 sequence (P06401 1-933): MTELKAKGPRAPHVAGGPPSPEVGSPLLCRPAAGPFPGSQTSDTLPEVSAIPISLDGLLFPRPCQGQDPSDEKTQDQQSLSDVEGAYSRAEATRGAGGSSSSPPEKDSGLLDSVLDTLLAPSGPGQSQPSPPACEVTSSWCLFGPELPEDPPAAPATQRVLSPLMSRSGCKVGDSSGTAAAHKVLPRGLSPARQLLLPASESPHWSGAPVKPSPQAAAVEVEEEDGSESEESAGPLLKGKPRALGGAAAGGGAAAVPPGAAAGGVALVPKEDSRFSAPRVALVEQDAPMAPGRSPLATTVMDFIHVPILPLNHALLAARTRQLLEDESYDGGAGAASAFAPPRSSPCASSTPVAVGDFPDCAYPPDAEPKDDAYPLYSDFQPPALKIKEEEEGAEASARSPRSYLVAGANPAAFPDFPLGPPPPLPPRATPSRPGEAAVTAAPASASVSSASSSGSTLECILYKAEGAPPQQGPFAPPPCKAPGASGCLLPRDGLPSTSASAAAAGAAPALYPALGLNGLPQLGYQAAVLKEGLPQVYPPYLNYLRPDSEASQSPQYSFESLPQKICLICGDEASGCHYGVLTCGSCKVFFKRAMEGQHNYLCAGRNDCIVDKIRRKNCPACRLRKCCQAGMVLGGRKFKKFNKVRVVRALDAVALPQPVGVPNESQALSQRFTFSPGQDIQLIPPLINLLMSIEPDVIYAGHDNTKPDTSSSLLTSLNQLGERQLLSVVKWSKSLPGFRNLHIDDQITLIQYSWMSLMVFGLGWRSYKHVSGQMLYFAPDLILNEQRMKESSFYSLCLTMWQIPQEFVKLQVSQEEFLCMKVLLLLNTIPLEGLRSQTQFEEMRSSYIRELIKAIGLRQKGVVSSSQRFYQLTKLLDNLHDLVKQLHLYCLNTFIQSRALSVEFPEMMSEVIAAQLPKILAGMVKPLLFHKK
The assay is described as follows: Progesterone receptor-B transactivation, agonistic mode (CHO cells, luciferase). Format: cell-based. The conditions noted are these: for EC50: CHO cells, agonistic mode, read-out: PRBagoEC50; for Emax: CHO, intrinsic agonistic activity, relative to reference (16α)-16-ethyl-21-hydroxy-19-norpregn-4-ene-3,20-dione, read-out: PRBago Eff (%). An excerpt: For selecting compounds of the subject invention with a mixed modulating effect on the progesterone receptor, testing in the agonistic mode must result in an intrinsic activity of between about 15% and about 85% of the maximal activity when (16α)-16-ethyl-21-hydroxy-19-norpregn-4-ene-3,20-dione is used as a reference. Moreover, this maximal agonistic activity should be reached at a concentration of 10^−6 or less, and preferably at a concentration of 10^−8 or less.
(§1) The progestagenic activity of a compound of the invention (EC50 and intrinsic agonistic activity) was determined in an in vitro bioassay of Chinese hamster ovary (CHO) cells as described by W. G. E. J. Schoonen et al. (Anal. Biochem. 261 (1998), 222-224). […] The efficacy of the antagonistic effect was expressed as the percentage of the effect produced by a standard antagonist, (6β,11β,17β)-11-[4-(dimethylamino)phenyl]-4′,5′-dihydro-6-methylspiro[estra-4,9-diene-17,2′(3′H)-furan]-3-one.
(§2) It will be recognized by those skilled in the art that, in the setting described above, the EC50 determined is more or less absolute and depends on the intrinsic property of the tested compound itself, however, the IC50 depends on the amount and agonistic EC50 of the inducer as well as on the intrinsic property of the tested compound itself. Thus, with the same amount of inducer, a relatively strong antagonist will be able to produce a measurable IC50 whereas a relatively weak antagonist may fail to produce a detectable result.

Assay [2] concerns the target T1, progesterone receptor-B. The assay is described as follows: Progesterone receptor-B transactivation, antagonistic mode (inhibition of luciferase transactivation by inducer, CHO cells). Format: cell-based. Particulars: for Emax: CHO, intrinsic antagonistic activity, percentage of effect of standard antagonist (6β,11β,17β)-11-[4-(dimethylamino)phenyl]-4′,5′-dihydro-6-methylspiro[estra-4,9-diene-17,2′(3′H)-furan]-3-one, 0.1 nM inducer, read-out: PRBant Eff (%); for EC50: in the presence of 0.1 nM inducer (16α)-16-ethyl-21-hydroxy-19-norpregn-4-ene-3,20-dione, read-out: PRBant EC50. On the procedure: In the antagonistic mode, testing must result in an intrinsic activity of between about 85% and about 15% of the maximal activity when (6β,11β,17β)-11-[4-(dimethylamino)phenyl]-4′,5′-dihydro-6-methylspiro[estra-4,9-diene-17,2′(3′H)-furan]-3-one is used as a reference.
as §1, §2

SMILES strings stand for the structures.

Take `CC[C@@H]1C[C@H]2[C@@H]3CCC4=CC(=O)CCC4=C3[C@@H](c3ccc(-c4cccnc4)cc3)C[C@]2(C)[C@H]1C(=O)C1CC1` [Example 16, (11β,16α,17β)-17-cyclopropylcarbonyl-16-ethyl-11-[4-(3-pyridinyl)-phenyl]-estra-4,9-dien-3-one]: the EC50 amounted to 230 pM on progesterone receptor-B [1] and 596 pM at progesterone receptor-B [2]. The Emax at progesterone receptor-B [1] was 34%; at progesterone receptor-B [2], 53%.

Consider `CC[C@@H]1C[C@H]2[C@@H]3CCC4=CC(=O)CCC4=C3[C@@H](c3ccc(-c4ccc(OC)nc4)cc3)C[C@]2(C)[C@H]1C(=O)C1CC1` [Example 17, (11β,16α,17β)-17-cyclopropylcarbonyl-16-ethyl-11-[4-(6-methoxy-pyridin-3-yl)phenyl]-estra-4,9-dien-3-one], for which the EC50 at progesterone receptor-B [1] was 1300 pM; on progesterone receptor-B [2], 7890 pM. In addition, the figures for the Emax at progesterone receptor-B [1] and at progesterone receptor-B [2] were 42% and 51.7%, respectively.

In the case of `C[C@]12C[C@H](c3ccc(-c4cccnc4)cc3)C3=C4CCC(=O)C=C4CC[C@H]3[C@@H]1CC[C@@H]2C(=O)C1CC1` [Example 18, (11β,17β)-17-cyclopropylcarbonyl-11-[4-(3-pyridinyl)phenyl]estra-4,9-dien-3-one], at progesterone receptor-B [1], the EC50 is 820 pM and the Emax amounted to 36%. In addition, on progesterone receptor-B [2], the Emax amounted to 66% and the EC50 was found to be 751 pM.

On to `COc1ccc(-c2ccc([C@H]3C[C@]4(C)[C@@H](C(=O)C5CC5)CC[C@H]4[C@@H]4CCC5=CC(=O)CCC5=C43)cc2)cn1` [Example 19, (11β,17β)-17-cyclopropylcarbonyl-11-[4-(6-methoxypyridin-3-yl)phenyl]estra-4,9-dien-3-one], for which, on progesterone receptor-B [1], the EC50 was 510 pM and the Emax came out at 28.3%. In addition, on progesterone receptor-B [2], the Emax was 57% and the EC50 came out at 427 pM.

As to `C[C@]12C[C@H](c3ccc(-c4cccnc4)cc3)C3=C4CCC(=O)C=C4CC[C@H]3[C@@H]1CC[C@]2(C)C(=O)C1CC1` [Example 20, (11β,17β)-17-cyclopropylcarbonyl-17-methyl-11-[4-(3-pyridinyl)-phenyl]estra-4,9-dien-3-one], the values for the EC50 on progesterone receptor-B [1] and at progesterone receptor-B [2] were 490 pM and 130 pM, respectively. Also, the Emax on progesterone receptor-B [1] was determined as 37.5%; on progesterone receptor-B [2], 58%.

Consider `C[C@]12C[C@H](c3ccc(-c4cccnc4)cc3)C3=C4CCC(=O)C=C4CC[C@H]3[C@@H]1C[C@H]1C[C@]12C(=O)C1CC1` [Example 21, (11β,16α,17β)-17-cyclopropylcarbonyl-16,17-dihydro-11-[4-(3-pyridinyl)phenyl]-3′H-cyclopropa[16,17]estra 4,9,16-trien-3-one], for which, on progesterone receptor-B [1], the EC50 worked out at 2000 pM and the Emax was determined as 18%. Further, at progesterone receptor-B [2], the Emax was 58% and the EC50 came out at 1400 pM.

As to `C[C@@H]1C[C@H]2[C@@H]3CCC4=CC(=NO)CCC4=C3[C@@H](c3ccc(-c4cccnc4)cc3)C[C@]2(C)[C@H]1C(=O)C1CC1` [Example 22, (11β,16α,17β)-17-cyclopropylcarbonyl-16-methyl-11-[4-(3-pyridinyl)-phenyl]estra-4,9-dien-3-one 3-oxime], at progesterone receptor-B [1], the EC50 was 640 pM and the Emax came out at 43%. Also, on progesterone receptor-B [2], the Emax amounted to 32% and the EC50 was 1470 pM.

For `CC12CC(c3ccc(-c4cccnc4)cc3)C3=C4CCC(=O)C=C4CCC3C1CCC21CCCC1=O` (stereo not drawn) [Example 23, (11β)-11-[4-(3-pyridinyl)phenyl]-17,24-cyclo-19,21-dinorchola 4,9-diene-3,20-dione], at progesterone receptor-B [1], the EC50 stood at 290 pM and the Emax was determined as 17%. For the same compound, at progesterone receptor-B [2], the Emax amounted to 70.8% and the EC50 turned out to be 325 pM.

Regarding `COc1ccc(-c2ccc([C@H]3C[C@@]4(C)[C@@H](CC[C@@]45CCCC5=O)[C@@H]4CCC5=CC(=O)CCC5=C43)cc2)cn1` [Example 24, (11β)-11-[4-(6-methoxypyridin-3-yl)phenyl]-17,24-cyclo-19,21-dinorchola 4,9-diene-3,20-dione], the EC50 at progesterone receptor-B [1] was found to be 150 pM; at progesterone receptor-B [2], 546 pM. Besides, the Emax on progesterone receptor-B [1] amounted to 20%; at progesterone receptor-B [2] it was 62%.
